Tested on: not listed separately
Assay: Ferrous ions (Fe2+) chelating activity (FIC)
Conditions: Fe2+ chelating activity
From the text: Despite the important biological role of iron, it can cause various pathological diseases, such as neurodegenerative, liver and heart diseases, cancer, and diabetes. In addition, it is able to catalyze the Fenton reaction and lead to the formation of a highly reactive hydroxyl radical. In this regard, the process of transition metal chelation was studied as one of the possible mechanisms of the action of antioxidants. This assay was based on the reaction of binding Fe^2+ ions by the studied compounds under moderately acidic conditions (pH = 6). Unreacted Fe^2+ ions reacted with ferrozine to form a stable dark violet colored complex. […] The chelation of ferrous ions by compounds was estimated by method of Dinis et al.. Briefly, 10 μL of 2 mM FeCl2 was added to 20 μL of the investigated compound (5 mM) and 150 μL of EtOH. The reaction was initiated by the addition of 0.04 mL of 5 mM ferrozine solution. The mixture was left to stand at 35 °C for 10 min. The absorbance of the solution was thereafter measured at 562 nm. The percentage inhibition of ferrozine–Fe^2+ complex formation was calculated as [(A0 − As)/[…]] × 100, where A0 is the absorbance of the control, and As is the absorbance of the compound/standard. Na2EDTA was used as the positive control.

IC50 [µM]	SMILES
7760 ± 20	c1ccc(SSSc2ccccc2)cc1 [Compound 1, diphenyl trisulfide]
> 10000	COc1ccccc1SSc1ccccc1OC [Compound 2, bis(2-methoxyphenyl) disulfide]
> 10000	COc1ccc(SSc2ccc(OC)c(OC)c2)cc1OC [Compound 3, bis(3,4-dimethoxyphenyl) disulfide]
5620 ± 40	Oc1ccc(SSc2ccc(O)cc2)cc1 [Compound 4, 4,4′-dihydroxydiphenyl disulfide]
3740 ± 20	c1ccc(SSc2ccccc2)cc1 [Compound 5, diphenyl disulfide]
6100 ± 10	CC(C)(C)c1cc(SSc2cc(C(C)(C)C)c(O)c(C(C)(C)C)c2)cc(C(C)(C)C)c1O [Compound 6, bis(3,5-di-tert-butyl-4-hydroxyphenyl) disulfide]

Same assay, conditions: compound 5 mM, ferrozine–Fe2+ complex formation

SMILES	FIC, % of Inhibition [%]
c1ccc(SSSc2ccccc2)cc1 [Compound 1, diphenyl trisulfide]	25.8 ± 1.1
COc1ccccc1SSc1ccccc1OC [Compound 2, bis(2-methoxyphenyl) disulfide]	7.1 ± 0.2
COc1ccc(SSc2ccc(OC)c(OC)c2)cc1OC [Compound 3, bis(3,4-dimethoxyphenyl) disulfide]	7.5 ± 0.3
Oc1ccc(SSc2ccc(O)cc2)cc1 [Compound 4, 4,4′-dihydroxydiphenyl disulfide]	47.2 ± 1.5

Tested on: not listed separately
Assay: LOOH accumulation in non-enzymatic peroxide oxidation of oleic acid
Conditions: 1 mmol/L additive, 65 °C, 3 h
Procedure: The total antioxidant activity of compounds 1–6 during the oxidation of oleic acid with atmospheric oxygen at 65 °C for 3 h was determined by standard methods according to the level of accumulation of the main metabolites. Hydroperoxides as primary products (LOOH) and secondary LPO carbonyl products formed colored complexes with thiobarbituric acid (TBARS).
The kinetics of LOOH and TBARS formation was similar in the control test and in the presence of the studied compounds. The exponential kinetic curves of LOOH accumulation in oleic acid corresponded to the equation CLOOH = a × e^kt with correlation coefficients close to 1. It indicated a pseudo-first order of reaction in the substrate, inherent in a radical process with degenerate chain branching (Figure 2). The kinetic curves of secondary carbonyl products were linear and corresponded to the equation CTBARS = kt + b, with correlation coefficients close to 1 (Figure 3).
The determination of oleic acid oxidation level was performed by the kinetic measurement of the total concentration of the corresponding isomeric LOOH using iodometric titration. The oxidation of constant volume of the acid (15 mL) was carried out in a thermostatic cell using an air flow at 65 °C during 3 h. The oxidation proceeded in the conditions, the oxidation rate was independent of the air volume passing through the cell.
The concentrations of the additives were 1 mM compared with the initial concentration of LOOH in the reaction mixture. Oleic acid (1 mL), CHCl3 (12 mL), glacial AcOH (18 mL), and freshly prepared cold-saturated KI solution (1 mL) were placed in a flask and shaken for 2 min. Then distilled water (100 mL) and a 1% starch solution (1 mL) were added and the resulting mixture was immediately titrated with Na2S2O3 solution (0.01 N). Iodine released in an amount equivalent to that of LOOH was titrated with a standard thiosulfate solution. At the same time, a control test for reagents was carried out: all the reagents except for oleic acid were added to the flask. The LOOH concentration was calculated according to the following formula:
[LOOH] = [(Vs − Vc) × 0.001269 × K × 100]/m, where vs. is the volume of 0.01 N Na2S2O3 solution, consumed during the titration of working sample, mL; Vc is the volume of 0.01 N Na2S2O3 solution, consumed during the titration of control, mL; K is the conversion factor to exactly 0.01 N Na2S2O3 solution; m is the mass of studied oleic acid; and 0.001269 is the amount of I2 expressed in g, equivalent to 1 mL of 0.01 N Na2S2O3 solution. The [LOOH, mmol/L] content equal to 1% corresponded to 78.7 mM of active O2 per 1 L of lipids.

SMILES	LOOH, k0/k1 (relative rate constant of LOOH formation)
c1ccc(SSSc2ccccc2)cc1 [Compound 1, diphenyl trisulfide]	0.78 ± 0.15
COc1ccccc1SSc1ccccc1OC [Compound 2, bis(2-methoxyphenyl) disulfide]	0.86 ± 0.11
Oc1ccc(SSc2ccc(O)cc2)cc1 [Compound 4, 4,4′-dihydroxydiphenyl disulfide]	0.61 ± 0.03

Same assay, conditions: after 3 h incubation of oleic acid, 65 °C

SMILES	LOOH accumulation, % of inhibition [%]
c1ccc(SSSc2ccccc2)cc1 [Compound 1, diphenyl trisulfide]	22.5

Tested on: WI-38
Assay: MTT assay
Assay type: cell-based
Conditions: Homo sapiens, 72 h, non-tumourigenic cells
Procedure: The antiproliferative activity of aromatic oligosulfides 1–6 was determined against human cell lines, including colon carcinoma HCT-116, breast adenocarcinoma MCF-7, lung adenocarcinoma A-549, colorectal carcinoma SW-480, and non-tumourigenic WI-38, using the MTT assay (Table 4). […] However, some selectivity for cancer cells was evident and the IC50 values for non-tumourigenic cells were slightly higher for compounds 1 and 2.
Cell survival was determined by the MTT [3-(4,5-[…])-2,5-diphenyl tetrazolium bromide] assay by Niks method with small modifications. HCT-116 (colon carcinoma), MCF-7 (breast adenocarcinoma), A-549 (lung adenocarcinoma) and SW-480 (colorectal carcinoma) human cancer cell lines and WI-38 (cell line composed of fibroblasts) were cultured in DMEM (PanEco, Moscow, Russia) with Glutamin (PanEco, Moscow, Russia) and antibiotics (PanEco, Moscow, Russia) in CO2 (5%) at 37 °C. The compounds were dissolved (20 mM) in DMSO and then added to the cell culture medium at the required concentration with a maximum DMSO content of 0.5 v/v%. At these concentrations, DMSO had no effect on cell viability, as was shown in the control experiments. Cells were cultured in 96-well plates (7000 cells/well) and treated with various concentrations (from […]) of the test compounds as well as doxorubicin at 37 °C for 72 h. Cell viability was determined using the MTT assay, which quantified dehydrogenase activity. Then, the cells were incubated at 37 °C for 50 min with a solution of MTT ([…], 5 mg × mL^−1) (Sigma-Aldrich, St. Louis, MO, USA). The supernatant was discarded, and cells were dissolved in DMSO ([…]). The optical density of the solution was measured at 570 nm with use of a multiwall-plate reader (Anthos Zenyth 2000rt, Biochrom, Cambridge, UK), and the percentage of surviving cells was calculated from the absorbance of untreated cells. Each experiment was repeated at least three times, and each concentration was tested in at least three replicates. Data were presented as a graph of the percentage of surviving cells versus the concentration of the test substances. The meanings of 50% inhibition concentration (IC50) with standard deviation were calculated using GraphPad Prism Version 5.03 for Windows (GraphPad Software, San Diego, CA, USA).

SMILES	IC50 [µM]
c1ccc(SSSc2ccccc2)cc1 [Compound 1, diphenyl trisulfide]	52.7 ± 8.5
COc1ccccc1SSc1ccccc1OC [Compound 2, bis(2-methoxyphenyl) disulfide]	31.9 ± 5.2
COc1ccc(SSc2ccc(OC)c(OC)c2)cc1OC [Compound 3, bis(3,4-dimethoxyphenyl) disulfide]	32.8 ± 5.4
Oc1ccc(SSc2ccc(O)cc2)cc1 [Compound 4, 4,4′-dihydroxydiphenyl disulfide]	28.7 ± 5.3
c1ccc(SSc2ccccc2)cc1 [Compound 5, diphenyl disulfide]	33.7 ± 9.1
CC(C)(C)c1cc(SSc2cc(C(C)(C)C)c(O)c(C(C)(C)C)c2)cc(C(C)(C)C)c1O [Compound 6, bis(3,5-di-tert-butyl-4-hydroxyphenyl) disulfide]	115 ± 75

— article PMC9229798, “Antioxidant Activity and Cytotoxicity of Aromatic Oligosulfides” (Molecules, 2022)
